The subject of one assay is WT cell line SK-BR-3. As to the kind of experiment: Cell Proliferation Assay (CellTiter-Glo), SK-BR-3. The format is cell-based. As to conditions: Homo sapiens, 72 h; SK-BR-3, 3 days treatment. As to the method:
The SK-BR-3 (ATCC, HTB-30) cell line was obtained from the American Type Culture Collection. Cells were maintained in McCoy' 5A medium (Gibco, REF #16600108) supplemented with 10% Fetal Bovine Serum. Cultures were maintained in a humidified incubator at 37° C. under 5% CO2/95% air.
Cell Proliferation Assay. PI3Kα H1047R mutated cell line T-47D cells and WT cell line SK-BR-3 were seeded at a density of 3×10^3 cells per well in 96 well plate (Xinyou Biotechnology, 062096) in 95 μL of culture medium, overnight. Compounds dissolved in 10 mM stock solutions in DMSO were serially diluted 1:3 in DMSO to generate a 9-point dilution series and plated using an INTEGRA ASSIST Plus pipetting robot. A 20× intermediate compound dilution plate in RPMI1640 medium (200 M starting compound concentration in 2% DMSO) was then prepared. Five μL of intermediate serially diluted compounds were added to the cell plate to final concentrations ranging from […] to 1 nM in 0.1% DMSO. 0.1% DMSO alone was used to establish the maximum signal and medium without cells was for minimum signal. After 3 days treatment, equilibrated the plate and its contents at room temperature for approximately 30 minutes. Added 30 μL CellTiter-Glo® Reagent (Promega, REF #G7571) to each well. Then mixed contents for 5 min on plate shaker to induce cell lysis. Incubated at room temperature for 10 minutes to stabilize luminescent signal. The plates were read on PHERAstar FSX Microplate reader using standard luminescence settings.
Relative IC50 values were determined using luminescence units by calculating percent inhibition with respect to the in-plate “MIN” (medium only) and “MAX” (0.1% DMSO) controls. The data were analyzed using a 4-parameter nonlinear logistic equation (four-parameter logistic concentration-response curve): Y=bottom+[(top−bottom)/1+(X/IC50) slope] • where Y=% inhibition, X=concentration of inhibitor, bottom=minimum value of y attained by curve-fit, top=maximum value of y attained by curve-fit and slope=steepness of curve at the IC50.
Background: In ATP-based viability assays light output follows the ATP content of the culture.

The target in assay [1] is PI3Kα (p110[H1047R]/p85) kinase (Homo sapiens, UniProt P42336, H1047R). In words: PI3Kα (p110[H1047R]/p85) kinase ADP-Glo Assay. As to conditions: 25 uM ATP; for selectivity: WT/H1047R: ADP-Glo Assay IC50 ratio. The format is biochemical. In outline: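 PI3Kα H1047R/p85 pre-incubated 30 min at room temperature with PI(4,5)P2:PS substrate ([…]) and compound ([…]) in HEPES pH 7.5 buffer with MgCl2; ATP ([…]) then added for 120 min. ADP quantified by ADP-Glo luminescence; IC50 from four-parameter logistic fit.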
Sequence of PI3Kα (p110[H1047R]/p85) kinase (P42336 whole entry H1047R): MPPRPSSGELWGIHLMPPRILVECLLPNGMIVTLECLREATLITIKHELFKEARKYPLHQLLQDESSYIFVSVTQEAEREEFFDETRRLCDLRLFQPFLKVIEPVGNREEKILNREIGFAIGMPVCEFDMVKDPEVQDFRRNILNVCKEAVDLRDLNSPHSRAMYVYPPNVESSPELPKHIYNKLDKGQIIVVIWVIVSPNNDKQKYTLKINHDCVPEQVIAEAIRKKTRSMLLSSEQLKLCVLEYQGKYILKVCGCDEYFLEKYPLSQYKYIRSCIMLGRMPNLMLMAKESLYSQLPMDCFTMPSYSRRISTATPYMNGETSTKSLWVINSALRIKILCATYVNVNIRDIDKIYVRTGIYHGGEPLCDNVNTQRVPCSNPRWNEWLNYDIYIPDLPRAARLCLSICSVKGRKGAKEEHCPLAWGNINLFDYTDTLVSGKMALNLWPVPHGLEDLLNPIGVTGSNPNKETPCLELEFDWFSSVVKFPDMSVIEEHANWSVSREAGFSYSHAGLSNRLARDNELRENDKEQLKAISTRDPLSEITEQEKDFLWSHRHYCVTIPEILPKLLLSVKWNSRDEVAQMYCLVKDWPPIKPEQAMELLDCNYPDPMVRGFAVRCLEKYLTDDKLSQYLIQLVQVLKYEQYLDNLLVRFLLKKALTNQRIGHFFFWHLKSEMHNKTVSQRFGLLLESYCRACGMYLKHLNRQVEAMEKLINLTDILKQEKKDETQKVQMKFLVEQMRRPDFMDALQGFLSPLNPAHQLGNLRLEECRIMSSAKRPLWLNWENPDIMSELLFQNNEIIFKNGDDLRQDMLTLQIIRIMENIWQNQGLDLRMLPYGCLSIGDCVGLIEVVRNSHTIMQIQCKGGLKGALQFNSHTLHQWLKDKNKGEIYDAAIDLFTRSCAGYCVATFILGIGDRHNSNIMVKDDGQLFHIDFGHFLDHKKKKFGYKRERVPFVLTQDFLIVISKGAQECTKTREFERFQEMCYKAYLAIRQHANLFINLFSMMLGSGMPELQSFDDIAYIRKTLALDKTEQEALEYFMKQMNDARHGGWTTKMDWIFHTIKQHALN
Sequence of PI3Kα (p110[H1047R]/p85) kinase (P27986 whole entry partner): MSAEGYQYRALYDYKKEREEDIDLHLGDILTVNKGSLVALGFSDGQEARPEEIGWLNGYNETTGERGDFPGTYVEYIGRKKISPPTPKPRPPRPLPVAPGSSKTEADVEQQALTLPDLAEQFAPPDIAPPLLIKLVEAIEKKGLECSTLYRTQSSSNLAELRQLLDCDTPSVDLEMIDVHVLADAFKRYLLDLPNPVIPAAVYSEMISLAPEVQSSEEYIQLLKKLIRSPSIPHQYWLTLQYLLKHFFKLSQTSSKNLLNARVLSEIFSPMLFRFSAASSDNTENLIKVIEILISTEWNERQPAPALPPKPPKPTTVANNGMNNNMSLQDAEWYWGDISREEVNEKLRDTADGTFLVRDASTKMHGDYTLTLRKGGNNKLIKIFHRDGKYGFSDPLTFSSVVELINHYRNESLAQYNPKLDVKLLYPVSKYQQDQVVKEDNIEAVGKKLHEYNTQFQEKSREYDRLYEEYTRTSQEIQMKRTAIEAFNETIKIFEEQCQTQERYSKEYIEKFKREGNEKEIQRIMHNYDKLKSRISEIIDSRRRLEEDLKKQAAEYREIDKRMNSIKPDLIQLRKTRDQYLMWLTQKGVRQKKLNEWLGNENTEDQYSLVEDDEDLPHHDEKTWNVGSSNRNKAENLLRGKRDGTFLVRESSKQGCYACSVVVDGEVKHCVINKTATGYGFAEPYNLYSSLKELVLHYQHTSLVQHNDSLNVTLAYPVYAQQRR
(ADP-Glo first removes unused ATP, then detects ADP through luciferase.)

Usually pIC50 stands for −log10 of the IC50, conventionally taken in molar units. Low values mean a high IC50, high ones a low IC50.

pIC50: −log10 of the molar value. Where only a bound is given, the exact number is not on record here.

On to `CC(Nc1ccccc1C(=O)O)c1cccc2c(=O)n(C)c(C#Cc3ccccc3)cc12` (stereo not shown) [Example 21, 2-((1-(2-methyl-1-oxo-3-(phenylethynyl)-1,2-dihydroisoquinolin-5-yl)ethyl)amino)benzoic acid], for which the pIC50 in the assay on WT cell line SK-BR-3 is less than 5.00. Besides, in assay [1], the negative logarithm of the IC50 (pIC50) was 6.92 and the “selectivity: WT/H1047R” value is given as 11.1.
`Cc1cc(C(C)Nc2ccccc2C(=O)O)c2cc(-c3cccc4cn(C)nc34)n(C)c(=O)c2c1` (stereo not shown) [Example 22, 2-((1-(2,7-dimethyl-3-(2-methyl-2H-indazol-7-yl)-1-oxo-1,2-dihydroisoquinolin-5-yl)ethyl)amino)benzoic acid]: the pIC50 in the assay with WT cell line SK-BR-3 is less than 5.00; in assay [1], 5.76. Also, the “selectivity: WT/H1047R” value in assay [1] was found to be 30.3.
For `Cc1cc(C(C)Nc2ccccc2C(=O)O)c2cc(-c3ccc(-c4cnn(C)c4)cc3)n(C)c(=O)c2c1` (stereo not shown) [Example 23, 2-((1-(2,7-dimethyl-3-(4-(1-methyl-1H-pyrazol-4-yl)phenyl)-1-oxo-1,2-dihydroisoquinolin-5-yl)ethyl)amino)benzoic acid], in that order: less than 5.00, 6.65 and 9.1.
In the case of `Cc1cc(C(C)Nc2ccccc2C(=O)O)c2cc(NC(=O)c3ccccc3)n(C)c(=O)c2c1` (stereo not shown) [Example 24, 2-((1-(3-benzamido-2,7-dimethyl-1-oxo-1,2-dihydroisoquinolin-5-yl)ethyl)amino)benzoic acid], the negative-log IC50 (pIC50) in the assay on WT cell line SK-BR-3 was less than 5.00. For the same molecule, in assay [1], the pIC50 was 5.99 and the “selectivity: WT/H1047R” value came out at 38.2.
For `CC(Nc1ccccc1C(=O)O)c1cccn2c(=O)cc(-c3ccccc3)cc12` (stereo not shown) [Example 25, 2-((1-(4-oxo-2-phenyl-4H-quinolizin-9-yl)ethyl)amino)benzoic acid], in that order: less than 5.00, 6.64 and 104.0.
The corresponding values for `Cc1cc([C@@H](C)Nc2ccccc2C(=O)O)c2cc(-c3ccccc3)n(C)c(=O)c2c1` [Example 30, (R)-2-((1-(2,7-dimethyl-1-oxo-3-phenyl-1,2-dihydroisoquinolin-5-yl)ethyl)amino)benzoic acid] are less than 5.00, 6.98 and 24.1.
As to `Cc1cc([C@H](C)Nc2ccccc2C(=O)O)c2cc(-c3ccccc3)n(C)c(=O)c2c1` [Example 31, (S)-2-((1-(2,7-dimethyl-1-oxo-3-phenyl-1,2-dihydroisoquinolin-5-yl)ethyl)amino)benzoic acid], the pIC50 in the assay on WT cell line SK-BR-3 is less than 5.00; in assay [1] it was less than 4.00.
With `Cc1cc(C(C)Nc2ccccc2C(=O)O)c2cc(-c3ccccc3C#N)n(C)c(=O)c2c1` (stereo not shown) [Example 32, 2-((1-(3-(2-cyanophenyl)-2,7-dimethyl-1-oxo-1,2-dihydroisoquinolin-5-yl)ethyl)amino)benzoic acid], in the assay on WT cell line SK-BR-3, the pIC50 is less than 5.00. In addition, in assay [1], the pIC50 was 6.48 and the “selectivity: WT/H1047R” value amounted to 184.0.
For the molecule `Cc1cc(C(C)Nc2cccnc2C(=O)O)c2cc(-c3ccc(F)cc3)n(C)c(=O)c2c1` (stereo not shown) [Example 33, 3-((1-(3-(4-fluorophenyl)-2,7-dimethyl-1-oxo-1,2-dihydroisoquinolin-5-yl)ethyl)amino)picolinic acid], the results for the negative logarithm of the IC50 (pIC50) (with WT cell line SK-BR-3; in assay [1]) were less than 5.00 and 5.98, respectively. The “selectivity: WT/H1047R” value in assay [1] turned out to be 52.6.
The corresponding values for `Cc1cc([C@@H](C)Nc2ccccc2C(=O)O)c2cc(-c3ccc(F)cc3)n(C)c(=O)c2c1` [Example 34, (R)-2-((1-(3-(4-fluorophenyl)-2,7-dimethyl-1-oxo-1,2-dihydroisoquinolin-5-yl)ethyl)amino)benzoic acid] are less than 5.00, 6.97 and 39.0.
As to `Cc1cc([C@H](C)Nc2ccccc2C(=O)O)c2cc(-c3ccc(F)cc3)n(C)c(=O)c2c1` [Example 35, (S)-2-((1-(3-(4-fluorophenyl)-2,7-dimethyl-1-oxo-1,2-dihydroisoquinolin-5-yl)ethyl)amino)benzoic acid], the pIC50 is less than 5.00 in the assay with WT cell line SK-BR-3 and less than 4.00 in assay [1].
As for `Cc1cc(C(C)Nc2ccccc2C(=O)O)c2cc(-c3ccccn3)n(C)c(=O)c2c1` (stereo not shown) [Example 36, 2-((1-(2,7-dimethyl-1-oxo-3-(pyridin-2-yl)-1,2-dihydroisoquinolin-5-yl)ethyl)amino)benzoic acid], the negative logarithm of the IC50 (pIC50) in the assay on WT cell line SK-BR-3 was less than 5.00. Also, in assay [1], the negative-log IC50 (pIC50) was 6.22 and the “selectivity: WT/H1047R” value is recorded as 84.2.
With `Cc1cc(C(C)Nc2ccccc2C(=O)O)c2cc(-c3cccnc3)n(C)c(=O)c2c1` (stereo not shown) [Example 37, 2-((1-(2,7-dimethyl-1-oxo-3-(pyridin-3-yl)-1,2-dihydroisoquinolin-5-yl)ethyl)amino)benzoic acid], in the assay on WT cell line SK-BR-3, the negative logarithm of the IC50 (pIC50) is less than 5.00. In assay [1], the pIC50 is 6.51 and the “selectivity: WT/H1047R” value was 40.6.
In the case of `Cc1cc(C(C)Nc2ccccc2C(=O)O)c2cc(-c3cncc(F)c3)n(C)c(=O)c2c1` (stereo not shown) [Example 38, 2-((1-(3-(5-fluoropyridin-3-yl)-2,7-dimethyl-1-oxo-1,2-dihydroisoquinolin-5-yl)ethyl)amino)benzoic acid], the negative-log IC50 (pIC50) in the assay with WT cell line SK-BR-3 is less than 5.00. For the same molecule, in assay [1], the negative logarithm of the IC50 (pIC50) is 6.57 and the “selectivity: WT/H1047R” value amounted to 36.7.
With `Cc1cc(C(C)Nc2ccccc2C(=O)O)c2cc(-c3ccc4nn(C)cc4n3)n(C)c(=O)c2c1` (stereo not shown) [Example 39, 2-((1-(2,7-dimethyl-3-(2-methyl-2H-pyrazolo[4,3-b]pyridin-5-yl)-1-oxo-1,2-dihydroisoquinolin-5-yl)ethyl)amino)benzoic acid], the pIC50 in the assay on WT cell line SK-BR-3 is less than 5.00. For the same molecule, in assay [1], the pIC50 was 6.04 and the “selectivity: WT/H1047R” value is recorded as 11.5.
The corresponding values for `Cc1cc([C@@H](C)Nc2ccccc2C(=O)O)c2cc(-c3ccc(-c4cnn(C)c4)cc3)n(C)c(=O)c2c1` [Example 40, (R)-2-((1-(2,7-dimethyl-3-(4-(1-methyl-1H-pyrazol-4-yl)phenyl)-1-oxo-1,2-dihydroisoquinolin-5-yl)ethyl)amino)benzoic acid] are less than 5.00, 7.26 and 93.1.
For `Cc1cc(C(C)Nc2ccccc2C(=O)O)c2cc(C#Cc3ccccc3)n(C)c(=O)c2c1` (stereo not shown) [Example 43, 2-((1-(2,7-dimethyl-1-oxo-3-(phenylethynyl)-1,2-dihydroisoquinolin-5-yl)ethyl)amino)benzoic acid], in that order: less than 5.00, 6.63 and 10.1.
The corresponding values for `Cc1cc(C(C)Nc2ccccc2C(=O)O)c2cc(/C=C/c3ccccc3)n(C)c(=O)c2c1` (stereo not shown) [Example 44, (E)-2-((1-(2,7-dimethyl-1-oxo-3-styryl-1,2-dihydroisoquinolin-5-yl)ethyl)amino)benzoic acid] are less than 5.00, 6.10 and 2.3.
The molecule `Cc1cc(C(C)Nc2ccccc2C(=O)O)c2cc(C3=Cc4ccccc4CC3)n(C)c(=O)c2c1` (stereo not shown) [Example 45, 2-((1-(3-(3,4-dihydronaphthalen-2-yl)-2,7-dimethyl-1-oxo-1,2-dihydroisoquinolin-5-yl)ethyl)amino)benzoic acid] had a pIC50 in the assay with WT cell line SK-BR-3 of less than 5.00. For the same molecule, in assay [1], the pIC50 is 6.56 and the “selectivity: WT/H1047R” value is reported as 26.4.
In the case of `Cc1cc(C(C)Nc2ccccc2C(=O)O)c2cc(C3=CCN(c4ccccc4)CC3)n(C)c(=O)c2c1` (stereo not shown) [Example 46, 2-((1-(2,7-dimethyl-1-oxo-3-(1-phenyl-1,2,3,6-tetrahydropyridin-4-yl)-1,2-dihydroisoquinolin-5-yl)ethyl)amino)benzoic acid], the pIC50 with WT cell line SK-BR-3 was less than 5.00; in assay [1], 6.32. For the same molecule, the “selectivity: WT/H1047R” value in assay [1] is reported as 23.0.
Regarding `Cc1cc(C(C)Nc2cc3ccsc3cc2C(=O)O)c2cc(-c3ccccc3)n(C)c(=O)c2c1` (stereo not shown) [Example 47, 5-((1-(2,7-dimethyl-1-oxo-3-phenyl-1,2-dihydroisoquinolin-5-yl)ethyl)amino)benzo[b]thiophene-6-carboxylic acid], the negative-log IC50 (pIC50) in the assay on WT cell line SK-BR-3 is less than 5.00. Further, in assay [1], the pIC50 was 6.28 and the “selectivity: WT/H1047R” value is on record as 27.3.
For `Cc1cc(C(C)Nc2c(C(=O)O)sc3ccccc23)c2cc(-c3ccccc3)n(C)c(=O)c2c1` (stereo not shown) [Example 48, 3-((1-(2,7-dimethyl-1-oxo-3-phenyl-1,2-dihydroisoquinolin-5-yl)ethyl)amino)benzo[b]thiophene-2-carboxylic acid], in that order: less than 5.00, 6.08 and 6.2.

For the origin of these results see patent US20260125346A1, “Isoquinolinone Derivatives and 4H-Quinolizinone Derivatives and Pharmaceutical Compositions Thereof for the Treatment of Disease” (BeOne Medicines I GmbH, priority 2023, published 2026).
